The text below walks through data of patent publication US10065950B2, “Substituted thiazoles as HIV integrase inhibitors” (Japan Tobacco Inc., priority 2010, dated 2018).

The target of the experiment is HIV-1 pNL4-3 integrase (Human immunodeficiency virus type 1 group M subtype B (isolate NY5) (HIV-1), UniProt P12497). The experiment can be described thus: Determination of enzyme (HIV integrase) inhibitory activity. It counts as biochemical. As to conditions: calculated from inhibition rate (fluorescence). The method in brief:
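Full-length pNL4-3 integrase from E. coli (0.75 μM stock) reacted 60 min at 37° C with compound and biotinylated donor DNA bound to streptavidin plates, in MOPS buffer with 5 mM MgCl2 and 10% DMSO. Digoxigenin-labelled target DNA (25 nM stock) then added for 20 min; strand transfer read by peroxidase anti-digoxigenin fluorescence (Ex 325/Em 420 nm).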

Structures are written as SMILES.

For the molecule `CN1C[C@@](C)(C(=O)N2CCC2)n2cc(-c3ncc(Cc4ccc(F)cc4)s3)c(=O)c(O)c2C1=O` [Example 266], the IC50 is 11 nM.

`CCNC(=O)[C@]1(C)CN(C2CC2)C(=O)c2c(O)c(=O)c(-c3ncc(Cc4ccc(F)cc4)s3)cn21` [Example 267]: the half-maximal inhibitory concentration (IC50) is 11 nM.

For the molecule `C[C@@]1(C(=O)N2CCC2)CN(C2CC2)C(=O)c2c(O)c(=O)c(-c3ncc(Cc4ccc(F)cc4)s3)cn21` [Example 268], the concentration for half-maximal inhibition (IC50) is 15 nM.

Consider `CCN1C[C@](C)(CO)n2cc(-c3nnc(Cc4ccc(F)cc4)s3)c(=O)c(O)c2C1=O` [Example 269], for which the IC50 is 9.4 nM.

As to `CCN1C(=O)c2c(O)c(=O)c(-c3nnc(Cc4ccc(F)cc4)s3)cn2C[C@@]1(C)COC` [Example 270], the IC50 was 9.5 nM.

With `CCN1C[C@@](C)(C(=O)N2CCC2)n2cc(-c3ncc(Cc4ccc(F)cc4)s3)c(=O)c(O)c2C1=O` [Example 271], the IC50 is 11 nM.

In the case of `COC1CN(C(=O)CC2CN(C(C)C)C(=O)c3c(O)c(=O)c(-c4ncc(Cc5ccc(F)cc5F)s4)cn32)C1` (stereo not shown) [Example 272], the IC50 was 8.9 nM.

For `C[C@@H](C1CC1)N1C[C@](C)(C(=O)N2CCC2)n2cc(-c3ncc(Cc4ccc(F)cc4)s3)c(=O)c(O)c2C1=O` [Example 273], the IC50 was 14 nM.

For `COC1CN(C(=O)[C@@]2(C)CN([C@@H](C)C3CC3)C(=O)c3c(O)c(=O)c(-c4ncc(Cc5ccc(F)cc5)s4)cn32)C1` [Example 274], the IC50 is 12 nM.

In the case of `C[C@@H](C1CC1)N1C[C@](C)(C(=O)N(C)C)n2cc(-c3ncc(Cc4ccc(F)cc4)s3)c(=O)c(O)c2C1=O` [Example 275], the IC50 is 14 nM.

Consider `CCNC(=O)[C@@]1(C)CN([C@@H](C)C2CC2)C(=O)c2c(O)c(=O)c(-c3ncc(Cc4ccc(F)cc4)s3)cn21` [Example 276], for which the IC50 is 16 nM.

For the molecule `COC[C@H]1CN(C(C)C)C(=O)c2c(O)c(=O)c(-c3nnc(Cc4cc(OC)c(F)cc4F)s3)cn21` [Example 277], the IC50 is 12 nM.

On to `CC[C@@H]1Cn2cc(-c3nnc(Cc4ccc(F)cc4)s3)c(=O)c(O)c2C(=O)N1C(C)C` [Example 278], for which the concentration for half-maximal inhibition (IC50) is 9.9 nM.

With `C[C@@H]1Cn2cc(-c3nnc(Cc4ccc(F)cc4)s3)c(=O)c(O)c2C(=O)N1CC1CC1` [Example 279], the IC50 is 6.3 nM.

As to `C[C@H](C1CC1)N1C[C@](C)(C(=O)N2CCC2)n2cc(-c3ncc(Cc4ccc(F)cc4)s3)c(=O)c(O)c2C1=O` [Example 280], the IC50 is 16 nM.

Turning to `COC1CN(C(=O)[C@@]2(C)CN([C@H](C)C3CC3)C(=O)c3c(O)c(=O)c(-c4ncc(Cc5ccc(F)cc5)s4)cn32)C1` [Example 281], the IC50 was 16 nM.

Consider `C[C@H](C1CC1)N1C[C@](C)(C(=O)N(C)C)n2cc(-c3ncc(Cc4ccc(F)cc4)s3)c(=O)c(O)c2C1=O` [Example 282], for which the IC50 is 15 nM.

For `CCNC(=O)[C@@]1(C)CN([C@H](C)C2CC2)C(=O)c2c(O)c(=O)c(-c3ncc(Cc4ccc(F)cc4)s3)cn21` [Example 283], the IC50 was 18 nM.

For the molecule `CCN1C(=O)c2c(O)c(=O)c(-c3nnc(Cc4ccc(F)cc4)s3)cn2[C@@H](COC)[C@@H]1C` [Example 284], the IC50 is 11 nM.

As for `COC[C@H]1[C@H](C)N(C(C)C)C(=O)c2c(O)c(=O)c(-c3nnc(Cc4ccc(F)cc4)s3)cn21` [Example 285], the IC50 was 11 nM.

Turning to `CCN1C(=O)c2c(O)c(=O)c(-c3nnc(Cc4ccc(F)cc4)s3)cn2C[C@H]1C(C)C` [Example 286], the IC50 is 7.8 nM.

Consider `CCN1C(=O)c2c(O)c(=O)c(-c3nnc(Cc4ccc(F)cc4)s3)cn2C[C@@H]1C(C)C` [Example 287], for which the IC50 was 8 nM.

Consider `COC[C@@H]1[C@@H](C)N(C(C)C)C(=O)c2c(O)c(=O)c(-c3nnc(Cc4ccc(F)cc4)s3)cn21` [Example 288], for which the IC50 was 8.8 nM.

In the case of `CCN1C(=O)c2c(O)c(=O)c(-c3nnc(Cc4ccc(F)cc4)s3)cn2[C@H](COC)[C@H]1C` [Example 289], the IC50 is 10 nM.

For `CC(C)N1C[C@](C)(C(=O)N2CCC(=O)C2)n2cc(-c3ncc(Cc4ccc(F)cc4)s3)c(=O)c(O)c2C1=O` [Example 290], the IC50 was 14 nM.

Turning to `CC[C@@H]1Cn2cc(-c3nnc(Cc4ccc(F)cc4)s3)c(=O)c(O)c2C(=O)N1CC` [Example 291], the IC50 was 8.7 nM.

With `CCN1C(=O)c2c(O)c(=O)c(-c3ncc(Cc4ccc(F)cc4)s3)cn2C[C@]1(C)C(=O)NC` [Example 292], the half-inhibitory concentration (IC50) was 7.3 nM.

With `CCN1C(=O)c2c(O)c(=O)c(-c3ncc(Cc4ccc(F)cc4)s3)cn2C[C@]1(C)C(=O)N(C)C` [Example 293], the IC50 was 9.6 nM.

Take `CCN1C(=O)c2c(O)c(=O)c(-c3ncc(Cc4ccc(F)cc4)s3)cn2C[C@]1(C)C(=O)N1CCCC1` [Example 294]: the IC50 was 11 nM.

`CCC(CC)N1C(=O)c2c(O)c(=O)c(-c3nnc(Cc4ccc(F)cc4)s3)cn2C[C@H]1COC` [Example 295]: the IC50 is 12 nM.

Take `CCN1C[C@](C)(COCCOC)n2cc(-c3nnc(Cc4ccc(F)cc4)s3)c(=O)c(O)c2C1=O` [Example 296]: the IC50 is 19 nM.

Consider `COCCOC[C@@]1(C)CN(C2CC2)C(=O)c2c(O)c(=O)c(-c3nnc(Cc4ccc(F)cc4)s3)cn21` [Example 297], for which the IC50 was 20 nM.

As to `CCN1C(=O)c2c(O)c(=O)c(-c3nnc(Cc4ccc(F)cc4)s3)cn2[C@@H](C)[C@@H]1COC` [Example 298], the IC50 is 9 nM.

On to `COC[C@H]1[C@H](C)n2cc(-c3nnc(Cc4ccc(F)cc4)s3)c(=O)c(O)c2C(=O)N1C(C)C` [Example 299], for which the IC50 is 9.8 nM.

As for `CCN1C(=O)c2c(O)c(=O)c(-c3nnc(CCc4ccc(F)cc4F)s3)cn2C[C@H]1COC` [Example 300], the IC50 was 9 nM.

As to `CCN1C(=O)c2c(O)c(=O)c(-c3nnc(Cc4ccc(F)cc4)s3)cn2CC1(COC)COC` [Example 301], the IC50 is 8 nM.

For `COC[C@H]1CN([C@H](C)C2CC2)C(=O)c2c(O)c(=O)c(-c3nnc(Cc4ccc(F)cc4)s3)cn21` [Example 302], the IC50 is 9.9 nM.

Regarding `CC[C@@H]1Cn2cc(-c3nnc(Cc4ccc(F)cc4)s3)c(=O)c(O)c2C(=O)N1CC1CC1` [Example 303], the IC50 is 5.8 nM.

Turning to `COC[C@@H]1[C@@H](C)n2cc(-c3nnc(Cc4ccc(F)cc4)s3)c(=O)c(O)c2C(=O)N1C(C)C` [Example 304], the IC50 was 9.1 nM.

As to `CCN1C(=O)c2c(O)c(=O)c(-c3nnc(Cc4ccc(F)cc4)s3)cn2[C@H](C)[C@H]1COC` [Example 305], the IC50 is 9.5 nM.

Consider `CC(C)N1C(=O)c2c(O)c(=O)c(-c3nnc(Cc4ccc(F)cc4)s3)cn2C[C@@]1(C)C(=O)N1CCCC1` [Example 306], for which the half-inhibitory concentration (IC50) is 10 nM.

In the case of `CCNC(=O)[C@]1(C)Cn2cc(-c3nnc(Cc4ccc(F)cc4)s3)c(=O)c(O)c2C(=O)N1C(C)C` [Example 307], the 50% inhibitory concentration (IC50) is 11 nM.

On to `CC(C)NC(=O)[C@]1(C)Cn2cc(-c3nnc(Cc4ccc(F)cc4)s3)c(=O)c(O)c2C(=O)N1C(C)C` [Example 308], for which the IC50 was 13 nM.

For `CC(C)N1C(=O)c2c(O)c(=O)c(-c3nnc(Cc4ccc(F)cc4)s3)cn2C[C@@]1(C)C(=O)NC(C)(C)C` [Example 309], the IC50 was 8.8 nM.

On to `CC(C)N1C(=O)c2c(O)c(=O)c(-c3nnc(Cc4ccc(F)cc4)s3)cn2C[C@@]1(C)C(=O)N1CCC1` [Example 310], for which the IC50 is 9.9 nM.

As to `CC(C)N1C(=O)c2c(O)c(=O)c(-c3nnc(Cc4ccc(F)cc4)s3)cn2C[C@@]1(C)C(=O)N1CCOCC1` [Example 311], the IC50 is 9.7 nM.

As to `CC(C)N1C(=O)c2c(O)c(=O)c(-c3nnc(Cc4ccc(F)cc4)s3)cn2C[C@@]1(C)C(=O)O` [Example 312], the IC50 is 12 nM.

For `CN(C)C(=O)[C@@]1(C)CN(C)C(=O)c2c(O)c(=O)c(-c3nnc(Cc4ccc(F)cc4)s3)cn21` [Example 313], the IC50 is 9.7 nM.

On to `CN(C)C(=O)[C@@]1(C)CN(C)C(=O)c2c(O)c(=O)c(-c3ncc(Cc4ccc(F)cc4)s3)cn21` [Example 314], for which the IC50 is 7.9 nM.

Turning to `CC(C)N1C(=O)c2c(O)c(=O)c(-c3nnc(Cc4ccc(F)cc4)s3)cn2C[C@@]1(C)C(=O)N(C)C` [Example 315], the IC50 is 8.8 nM.

As to `COC[C@H]1CN([C@@H](C)C2CC2)C(=O)c2c(O)c(=O)c(-c3nnc(Cc4ccc(F)cc4)s3)cn21` [Example 316], the IC50 is 12 nM.

On to `COC[C@@H]1Cn2cc(-c3nnc(CCc4ccc(F)cc4F)s3)c(=O)c(O)c2C(=O)N1C(C)C` [Example 317], for which the IC50 is 9.8 nM.

`CCN1C(=O)c2c(O)c(=O)c(-c3nnc(Cc4ccc(F)cc4)s3)cn2C[C@]1(C)COC` [Example 318]: the IC50 is 6.5 nM.

In the case of `CCN1C(=O)c2c(O)c(=O)c(-c3nnc(Cc4ccc(F)cc4F)s3)cn2CC1(COC)COC` [Example 319], the IC50 is 5.8 nM.

Take `COCC1(COC)Cn2cc(-c3nnc(Cc4ccc(F)cc4)s3)c(=O)c(O)c2C(=O)N1C(C)C` [Example 320]: the IC50 was 9.4 nM.

As for `CC(C)N1C(=O)c2c(O)c(=O)c(-c3nnc(Cc4ccc(F)cc4F)s3)cn2C[C@@]1(C)C(=O)N(C)C` [Example 321], the IC50 is 7 nM.

Take `CCN1C(=O)c2c(O)c(=O)c(-c3nnc(Cc4ccc(F)cc4)s3)cn2C[C@]1(C)COCCOC` [Example 323]: the IC50 is 14 nM.

As for `CC[C@@H]1Cn2cc(-c3ncc(Cc4ccc(F)cc4)s3)c(=O)c(O)c2C(=O)N1CC` [Example 327], the IC50 was 5.9 nM.

Consider `CCN1C(=O)c2c(O)c(=O)c(-c3nnc(Cc4ccc(F)cc4)s3)cn2C[C@H]1C` [Example 328], for which the IC50 was 7.1 nM.

With `CCN1C(=O)c2c(O)c(=O)c(-c3ncc(Cc4ccc(F)cc4)s3)cn2C[C@H]1C(C)C` [Example 329], the IC50 was 6.1 nM.

`CCN1C(=O)c2c(O)c(=O)c(-c3ncc(Cc4ccc(F)cc4)s3)cn2C[C@H]1C` [Example 330]: the IC50 is 6.4 nM.
